For the test, the system named is β-amyloid peptide release and/or its synthesis. Put plainly: inhibition of β-amyloid peptide release and/or its synthesis (test not specified). The class given is cell-based. The conditions noted are these: statement in words only; no assay or value given.

For `CC(C)(C)c1cc(NC(=O)c2cccc(N(C=O)Cc3cc(F)cc(F)c3)c2)[nH]n1` [Example 110], the “inhibits β-amyloid peptide release and/or its synthesis” value is reported as “inhibits β-amyloid peptide release and/or its synthesis”.
On to `CC(C)(C)c1cc(NC(=O)c2cccc(Nc3cc(F)cc(F)c3)c2)[nH]n1` [Example 111, N-(5-tert-Butyl-2H-pyrazol-3-yl)-3-(3,5-difluoro-phenylamino)-benzamide], for which the “inhibits β-amyloid peptide release and/or its synthesis” value is “inhibits β-amyloid peptide release and/or its synthesis”.

For the origin of these results see US7759382B2, “Acylated amino acid amidyl pyrazoles and related compounds” (Elan Pharmaceuticals, Inc., priority 2003, dated 2010).
